Article PMC5764437, “Discovery of novel, orally bioavailable, antileishmanial compounds using phenotypic screening” (PLoS Neglected Tropical Diseases, 2017)
“Also recorded” adds a separate entry of the source.

Tests used:
[1] = Liver microsomal stability, human; details: both, liver microsomes, pH 7.4
Method: (§1) One part of 10 mM DMSO compound stock was mixed with 4 parts of acetonitrile to make 2 mM diluted compound stock in DMSO and acetonitrile. 29.1 µL diluted compound stock was added to 2.3 mL liver microsomal solution and vortexed to make microsomal solution with compound. […] For the 0 h time point, 450 µL pre-cooled (4 °C) internal standard (10 µM warfarin in methanol) was added to the first three columns before the reaction was initiated. 1.25 ml of microsome assay solution A (Fisher Scientific, #NC9255727) was combined with 0.25 ml of solution B (Fisher Scientific, #NC9016235) in 3.5 ml of potassium phosphate buffer (0.1 M, pH 7.4). 45 µL of this A+B solution was added to each well of the 96-well storage plate (reaction plate). Liquid in the first 3 columns was moved to another storage plate (quenched plate). The reaction plate was then sealed, incubated at 37 °C, and shaken at a speed of 60 rpm. Time points (0.5 h, 1 h, 2 h) were taken. At each time point, 450 µL pre-cooled internal standard was added to 3 rows in the reaction plate, and the liquid was then transferred to the quenched plate. […] 200 µL supernatant was transferred to a 96-well plate and analyzed by ultra-performance liquid chromatography-mass spectrometry (UPLC-MS) (Waters Inc.). The compounds and internal standard were detected by selected ion recording (SIR).

[2] = Dose-ranging tolerability / 10-day toxicity study in mice; assay type: in vivo, mouse
Method: Drug doses were chosen based on pilot toxicology and pharmacokinetic studies. Female BALB/C mice (compound 4) or C57BL6 (compound 5) of 17–21 grams were purchased from Charles River Laboratories (Wilmington, MA). Food and water were provided ad libitum. Two mice were used as control and another 5 mice were dosed daily via oral gavage (25 mg/kg with compound 4 and 50 mg/kg with compound 5). Every day blood was collected by retro-orbital bleed from one animal from the treatment group for pharmacokinetics. […] Each mouse received two blood collections and glucose measurements over the 10-day course of treatment.

[3] = Caco-2 permeability assay; assay type: in vitro ADME; details: human, pH 7.4; for Papp A→B at 2 h, 10 μmol/L / Papp B→A at 2 h, 10 μmol/L: Caco-2, mean ± standard deviation of three runs; for Papp A→B at 2 h, 10 μmol/L: read-out: Caco-2 (A→B) permeability coefficient; for Papp B→A at 2 h, 10 μmol/L: read-out: Caco-2 (B→A) permeability coefficient
[4] = Liver microsomal stability, mouse; details: female, liver microsomes, pH 7.4
Method: as §1

[5] = test system: L. mexicana intracellular amastigotes; test: Growth inhibition of intracellular amastigotes in J774A.1 macrophages (Renilla luciferase luminescence); assay type: cell-based; details: Leishmania mexicana, J774.A1; intracellular amastigotes in J774A.1 macrophages; mean ± standard deviation, n = 2; read-out: L. mexicana EC50
Method: L. mexicana (MNYZ/BZ/62/M379) or L. donovani (LdBob strain) parasites expressing the Renilla luciferase gene from a rRNA gene locus were used to infect J774A.1 macrophages. Growth of intracellular amastigotes was measured using a luminescence assay, as detailed previously. The growth inhibitor activities of compounds were tested against bloodstream form Lister 427 T. brucei in 96-well plates containing 1 X 10^5 parasites per well in 0.2 ml HMI-11 medium (Gibco/Thermo Fisher). Compounds (2 μl volumes in DMSO) were added to the parasites using serial 3-fold dilutions to cover a range of concentrations from about 10 μM to 1 nM. After 48 h incubation at 37°C under a humidified 5% CO2 atmosphere, 10 μl of 10% Triton X-100 and 100 X stock SYBR Green I (Sigma-Aldrich) in PBS was added and florescence measured (excitation 497 nm; emission 520 nm) after 1 h incubation in the dark using a Spectra Max Gemini XPS fluorimeter (Molecular Devices). Data were log transformed and EC50 values were determined using GraphPad Prism 6 (GraphPad Software). In the absence of growth inhibiting compounds, the parasites grew from an initial density of 5 X 10^5 cells/mL to ~3 X 10^6 cells/mL.
[…]. These were chosen as candidates for further study. From these 230 compounds, we were able to repurchase 113 from commercial vendors. These compounds were characterized for purity by ultra-performance liquid chromatography using ultraviolet spectroscopy and evaporative light scattering detection and identity by mass spectrometry. All validated compounds were profiled for activity against intracellular amastigotes, the disease-causing stage of the life cycle. Intracellular amastigote activity was determined using a strain of L. mexicana in which the Renilla luciferase gene was integrated into the rRNA locus, allowing robust expression for measuring amastigote growth within cultured macrophages. All 113 compounds were applied at 1 μM concentration for 96 h to J774A.1 macrophages infected with L. mexicana luciferase-expressing parasites. […].
Next, we generated dose-response curves for these 55 compounds against intracellular amastigotes and independently against J774A.1 macrophages to establish the relative potency of each compound against the pathogen and its host cell. […]. The nine remaining compounds, each representing a unique chemical scaffold (compounds 1–9, Fig 3), were designated top hits (Fig 1).

L. mexicana = test: Efficacy in murine model of cutaneous leishmaniasis (footpad lesion size); assay type: in vivo; details: BALB/c mice infected with L. mexicana, measured weeks 4–12
Method: Female BALB/c mice (~20 g) were injected in one hind footpad with 1 x 10^6 stationary phase promastigotes suspended in 25 μl of phosphate buffered saline (PBS). Four weeks after infection, when a small cutaneous lesion was visible in the injected footpad, cohorts of five mice were treated with either compound or vehicle alone (90 μl), delivered daily for 10 consecutive days by oral gavage using a 20-gauge x 30 mm disposable plastic feeding needle. Vehicle consisted of 10/10/40/39 mixture of ethanol/(PG)/PEG400/PBS plus 1% (weight/volume) 2HβCD (PG is propylene glycol, PEG is polyethylene glycol, 2HβCD is 2-hydroxy-β-cyclodextran). The daily dose for each compound was: compound 4, 25 mg/kg; compound 5, 30 mg/kg; miltefosine, 20 mg/kg. The width of the footpad (top to bottom) was measured with calipers before injection of parasites (day 0) and weekly from weeks 4–12. The width of the uninfected contralateral footpad was also measured each week, and its width was subtracted from that of the infected footpad to determine lesion size.

J774A.1 macrophages = test: Cytotoxicity to J774A.1 macrophages (dose-response); assay type: cell-based; details: for EC50: Mus musculus, J774.A1, host macrophage, tested up to 10 μM, mean ± standard deviation, n = 2, read-out: J774A.1 EC50
Method: Cytotoxicity of compounds to J774.A1 macrophages was determined by dose-response curves as described previously. In the absence of growth inhibitors or DMSO, the macrophages increased in number ~6-fold over 96 h in Minimum Essential Medium, employed for both macrophage infections and the toxicity assays.

[6] = 50 mg/kg, 10-day toxicity study

| SMILES | half-life at 20 μM [1] [h] | Tolerability of daily oral administration ([2]; daily oral, 25 mg/kg) | Seizures ([2]; oral gavage, 25 mg/kg) | Glucose level ([2]; oral gavage, 25 mg/kg, at Cmax and Cmin) | Seizures / seizure-like behavior ([2]; oral gavage, 50 mg/kg) | Glucose level in plasma ([2]; oral gavage, 50 mg/kg, untreated mice 185–251 mg/dl) [mg/dL] | Papp A→B at 2 h, 10 μmol/L [3] [×10⁻⁶ cm/s] | Papp B→A at 2 h, 10 μmol/L [3] [×10⁻⁶ cm/s] | half-life at 20 μM [4] [h] | EC50 [5] [µM] | Cutaneous lesion size (footpad width) (L. mexicana; 25 mg/kg daily oral gavage for 10 days from week 4) | EC50 (J774A.1 macrophages) [µM] | Reduction in viability / inhibition of host macrophage J774A.1 in dose-response studies (J774A.1 macrophages; up to 10 μM) | Food intake [2, 6] | Weight loss [2, 6] | efflux ratio at 2 h, 10 μmol/L ([3]; Caco-2, pH 7.4, Papp B→A / Papp A→B) | Cutaneous lesion size (footpad width) (L. mexicana; 30 mg/kg daily oral gavage for 10 days from week 4) |
| --- | --- | --- | --- | --- | --- | --- | --- | --- | --- | --- | --- | --- | --- | --- | --- | --- | --- |
| COc1ccc(-c2c(C(F)(F)F)oc3c(CN4CCN(C)CC4)c(O)ccc3c2=O)cc1OC [Compound 4] | > 4 | well-tolerated in all study animals; also recorded: No weight loss or other toxicity was observed | no seizures were seen | remained within normal limits | half of the animals exhibited seizure-like behavior | 23 to 40 | 49 ± 0.3 | 39 ± 0.7 | > 4 | 0.08 | controlled lesion size at dimensions similar to that at the time of compound dosing (4 weeks) until week 9 | > 10 | no reduction in viability; also recorded: no inhibition of J774A.1 macrophages up to 10 μM concentration |  |  |  |  |
| Cc1ccc(-c2nc3ccccc3s2)cc1NC(=O)c1cc([N+](=O)[O-])c(N2CCN(C)CC2)cc1Cl [Compound 5] | > 4 |  |  |  |  |  | 16.8 ± 2.4 | 32.2 ± 2.9 | > 4 | 0.022 |  | 1.1 ± 0.8 |  | reduced food intake | more than 10% | 1.92 | controlled lesion size at dimensions similar to that at the time of compound dosing (4 weeks) until week 9 |
